Test system: 991263-137-R1-J2-PDC complex spheroid viability
Assay: Anticancer human tumor 991263-137-R1-J2-PDC patient-derived colon adenocarcinoma cell line growth inhibition [POLQ]
Conditions: for IC50: curve of first compound; for viability, T/C: stronger effect = lower value
Procedure: Multicellular complex tumor spheroid response to Polymerase (POL) inhibitors (novobiocin, ART-558, RP6685) in combination with a variety of drugs and investigational agents in selected tumor cell lines
The POL inhibitors (novobiocin, ART-558, and RP6685) were evaluated both individually and in combination with standard of care and investigational anticancer small molecules within a complex spheroid model of solid tumors. . Complex spheroids include a stromal component modeled by human endothelial cells (HUVEC) and fibroblasts modeled by human mesenchymal stem cells (MSCs). The concentration ranges selected for each drug and investigational agent were based upon clinically achievable concentrations if the clinical Cmax of the agent was known.
Compounds. The drugs and investigational agents: novobiocin (NSC847541), ART-558 (NSC835418), RP-6685 (NSC848927), peposertib (NSC802822), ceralasertib (NSC780249), elimusertib (NSC800525), camonsertib (NSC841442), AZD-1390 (NSC803789), olaparib (NSC753686), talazoparib (NSC767125), rucaparib (NSC756644), sotorasib (NSC818433), MRTX-1133 (NSC836407), SN-38 (NSC673596), topotecan (NSC609699), epotoside (NSC141540), doxorubicin (NSC123127), gemcitabine (NSC613327), 5-fluorouracil (NSC19893), paclitaxel (NSC125973), vemurafenib (NSC761431), MSA-2 (NSC828583), SN-011 (NSC837082), adavosertib (NSC754352), prexasertib (NSC758257), carboplatin (NSC241240) and oxaliplatin (NSC266046), were obtained from the National Cancer Institute (NCI) Developmental Therapeutics Program Chemical Repository (21). The FDA-approved anticancer drug set is available from the Developmental Therapeutics Program at https://dtp.cancer.gov/organization/dscb/obtaining/. […] The stock solutions were prepared in dimethyl sulfoxide (DMSO, Sigma-Aldrich, St. Louis, MO, cat. D2650), except for the platinum compounds which were prepared in saline (Quality Biological, Gaithersburg, MD, cat. 114-055-101), at 800-fold the tested concentration and stored at -70 degrees C prior to their use. All drugs and investigational agents were tested over a range starting from a high concentration at or near the clinical Cmax and decreasing in half-log increments. If the clinical Cmax for an agent had not been determined, the highest concentration tested was 10 microM, except for SN-38, which was tested at a high concentration of 1 microM.
Cell Culture. All cells were maintained in an incubator at 37 degrees C and 5% CO2 with 95% humidity. The PDC lines were cultured according to standard operating procedures established by the NCI PDMR (https://pdmr.cancer.gov). Table 3 of the manuscript, lists the cell lines along with the number of the three cell types plated to form the mct-spheroids and media for tumor cell growth. After thawing, all PDC lines, except 997537-175-T-J1-PDC and 415267-285-R-J2-PDC, were cultured in Matrigel-coated flasks prepared with a working solution of 1X Ham's F-12 nutrient mix, without supplementation (Thermo Fisher Scientific, cat. 11765054), 100 U/mL penicillin-streptomycin (Thermo Fisher Scientific, cat. 15140122), and 2.5% Matrigel (Corning Inc., Corning, NY, cat. 354248) for the first three passages. The two PDC lines 997537-175-T-J1-PDC and 415267-285-R-J2-PDC were cultured on uncoated flasks. The 857933-349-R-J2-PDC line was cultured in 6C/Colon 1B media containing advanced DMEM/F-12 (Thermo Fisher Scientific, cat. 12634028), 10 mM HEPES (Thermo Fisher Scientific, cat. 15630080), 1X GlutaMAX supplement (Thermo Fisher Scientific, cat. 35050061), 0.1 mg/mL primocin (InvivoGen, San Diego, CA, cat. ant-pm-2), 10% defined fetal bovine serum, heat inactivated (HyClone Laboratories Inc., Logan, UT, cat. SH30070.03HI), 50% L-WRN conditioned media (ATCC, cat. CRL-3276), 1.25 mM N-Acetyl-L-cysteine (Sigma-Aldrich, cat. A9165), 10 mM nicotinamide (Sigma-Aldrich, cat. N0636), 1X B-27 supplement (Thermo Fisher Scientific, cat. 17504044), 1X N-2 supplement (Thermo Fisher Scientific, cat. […]

[1] = second compound 0.0316 µM, first compound 0.0316 µM
[2] = second compound 0.0316 µM, first compound 0.1 µM
[3] = second compound 0.0316 µM, first compound 0.316 µM
[4] = second compound 0.0316 µM, first compound 1 µM
[5] = second compound 0.0316 µM, first compound 3.16 µM
[6] = second compound 0.0316 µM, first compound 10 µM
[7] = second compound 0.1 µM, first compound 0.0316 µM
[8] = second compound 0.1 µM, first compound 0.1 µM
[9] = second compound 0.1 µM, first compound 0.316 µM
[10] = second compound 0.1 µM, first compound 1 µM
[11] = second compound 0.1 µM, first compound 3.16 µM
[12] = second compound 0.1 µM, first compound 10 µM
[13] = second compound 0.316 µM, first compound 0.0316 µM
[14] = second compound 0.316 µM, first compound 0.1 µM
[15] = second compound 0.316 µM, first compound 0.316 µM
[16] = second compound 0.316 µM, first compound 1 µM
[17] = second compound 0.316 µM, first compound 3.16 µM
[18] = second compound 0.316 µM, first compound 10 µM
[19] = second compound 1 µM, first compound 0.0316 µM
[20] = second compound 1 µM, first compound 0.1 µM
[21] = second compound 1 µM, first compound 0.316 µM
[22] = second compound 1 µM, first compound 1 µM
[23] = second compound 1 µM, first compound 3.16 µM
[24] = second compound 1 µM, first compound 10 µM
[25] = second compound 3.16 µM, first compound 0.0316 µM
[26] = second compound 3.16 µM, first compound 0.1 µM
[27] = second compound 3.16 µM, first compound 0.316 µM
[28] = second compound 3.16 µM, first compound 1 µM
[29] = second compound 3.16 µM, first compound 3.16 µM
[30] = second compound 3.16 µM, first compound 10 µM
[31] = second compound 10 µM, first compound 0.0316 µM
[32] = second compound 10 µM, first compound 0.1 µM
[33] = second compound 10 µM, first compound 0.316 µM
[34] = second compound 10 µM, first compound 1 µM
[35] = second compound 10 µM, first compound 3.16 µM
[36] = second compound 10 µM, first compound 10 µM
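Note: spheroids exposed to compounds for 7 days before readout.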
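Throughout, for viability, T/C: 100% = DMSO vehicle control viability.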

Molecule COc1cc(C2c3cc4c(cc3C(OC3OC5COC(C)OC5C(O)C3O)C3COC(=O)C23)OCO4)cc(OC)c1O (centres undefined) + COC1C(OC(N)=O)C(O)C(Oc2ccc3c(O)c(NC(=O)c4ccc(O)c(CC=C(C)C)c4)c(=O)oc3c2C)OC1(C)C has an IC50 (second compound 0.0316 µM) greater than 10 µM, an IC50 (second compound 0.1 µM) greater than 10 µM and an IC50 (second compound 0.316 µM) greater than 10 µM. For the same molecule, the IC50 (second compound 1 µM) was greater than 10 µM, the IC50 (second compound 3.16 µM) was greater than 10 µM and the IC50 (second compound 10 µM) was greater than 10 µM. For the same molecule, the viability, T/C [1] was 120%, the viability, T/C [2] was 105% and the viability, T/C [3] was 98.9%. The viability, T/C [4] was 94.9%, the viability, T/C [5] was 98.2% and the viability, T/C [6] was 76.1%. For the same molecule, the viability, T/C [7] was 118%, the viability, T/C [8] was 108% and the viability, T/C [9] was 118%. The viability, T/C [10] was 92%, the viability, T/C [11] was 95.9% and the viability, T/C [12] was 83.3%. It also gave a viability, T/C [13] of 95.7%, a viability, T/C [14] of 104% and a viability, T/C [15] of 96.1%. It also gave a viability, T/C [16] of 90.3%, a viability, T/C [17] of 84.8% and a viability, T/C [18] of 73.1%. It also gave a viability, T/C [19] of 107%, a viability, T/C [20] of 99.1% and a viability, T/C [21] of 100%. It also gave a viability, T/C [22] of 83.2%, a viability, T/C [23] of 106% and a viability, T/C [24] of 94%. The viability, T/C [25] was 96.2%, the viability, T/C [26] was 113% and the viability, T/C [27] was 109%. The viability, T/C [28] was 115%, the viability, T/C [29] was 97.6% and the viability, T/C [30] was 72.3%. The viability, T/C [31] was 83.9%, the viability, T/C [32] was 115% and the viability, T/C [33] was 98.9%. For the same molecule, the viability, T/C [34] was 91.2%, the viability, T/C [35] was 101% and the viability, T/C [36] was 80.8%.

Work on COc1cccc2c1C(=O)c1c(O)c3c(c(O)c1C2=O)CC(O)(C(=O)CO)CC3OC1CC(N)C(O)C(C)O1 (centres undefined) + COC1C(OC(N)=O)C(O)C(Oc2ccc3c(O)c(NC(=O)c4ccc(O)c(CC=C(C)C)c4)c(=O)oc3c2C)OC1(C)C yielded an IC50 (second compound 0.0316 µM) of 1.54 µM, an IC50 (second compound 0.1 µM) of 1.21 µM and an IC50 (second compound 0.316 µM) of 1.18 µM. The IC50 (second compound 1 µM) was 1.13 µM, the IC50 (second compound 3.16 µM) was 1.6 µM and the IC50 (second compound 10 µM) was 1.03 µM. For the same molecule, the viability, T/C [1] was 116%, the viability, T/C [2] was 101% and the viability, T/C [3] was 93.3%. For the same molecule, the viability, T/C [4] was 55.7%, the viability, T/C [5] was 38.1% and the viability, T/C [6] was 31.1%. It also gave a viability, T/C [7] of 104%, a viability, T/C [8] of 115% and a viability, T/C [9] of 92.5%. The viability, T/C [10] was 51.9%, the viability, T/C [11] was 45.1% and the viability, T/C [12] was 34.9%. The viability, T/C [13] was 107%, the viability, T/C [14] was 116% and the viability, T/C [15] was 76%. The viability, T/C [16] was 55.4%, the viability, T/C [17] was 43.1% and the viability, T/C [18] was 33.1%. The viability, T/C [19] was 101%, the viability, T/C [20] was 120% and the viability, T/C [21] was 93.1%. It also gave a viability, T/C [22] of 51.5%, a viability, T/C [23] of 39.6% and a viability, T/C [24] of 27.4%. It also gave a viability, T/C [25] of 109%, a viability, T/C [26] of 109% and a viability, T/C [27] of 92.2%. The viability, T/C [28] was 56.6%, the viability, T/C [29] was 41.9% and the viability, T/C [30] was 31.8%. It also gave a viability, T/C [31] of 88.1%, a viability, T/C [32] of 106% and a viability, T/C [33] of 102%. It also gave a viability, T/C [34] of 50.1%, a viability, T/C [35] of 56.2% and a viability, T/C [36] of 33.9%.

Reference: PubChem BioAssay AID1963828 (Molecular Pharmacology Branch, DTP, NCI, 2024)
